In publication PMC9964244, “Effects of Dimerization, Dendrimerization, and Chirality in p-BthTX-I Peptide Analogs on the Antibacterial Activity and Enzymatic Inhibition of the SARS-CoV-2 PL^pro Protein” (Pharmaceutics, 2023):
In brackets after ≈: the same amount, converted by molar mass. Several values for one entry are separate records, joined by “and”; a condition that tells them apart may be missing. Equal values may be shown once. Read-outs that look alike come from different tables or passages of the source. Bridge positions count the residues as written; N and C are the ends. Square brackets hold non-standard residues; d marks the D form. Ends that are not written are not given here. Peptide text beside a SMILES is read from it. I, II: the chains in the order shown.

What was measured:
[1] = tested on: S. aureus ATCC 25923; test: MIC/MBC, broth microdilution and subculture on CA-MH agar; assay type: cell-based, Staphylococcus aureus; design: key to Act (antibacterial activity): Bc, bactericidal; Bs, bacteriostatic; settings: for MIC: broth microdilution; for MIC / MBC: triplicate, mode; for MBC: subculture on CA-MH agar, 37 °C, 24 h
Description: (§1) Bacterial isolates from the American Type Culture Collection (ATCC) were obtained from the Collection of Reference Bacteria on Health Surveillance, Oswaldo Cruz Foundation (FIOCRUZ) after phenotypic and molecular quality control and were registered at SISGEN under the number ADB556B. The minimum inhibitory concentration (MIC) was determined as previously described by Santos-Filho et al., 2021 [17], using the broth microdilution method. The MIC was the lowest concentration that inhibited microbial growth. […] MBC was defined as the lowest peptide concentration with no visible growth on the plate. […] The assay was performed in triplicate, and the values represent the mode of the obtained results.
(§2) Thus, to assess the relevance of the antimicrobial effect of p-Bth analogs, their Minimum Inhibitory Concentration (MIC) and Minimum Bactericidal Concentration (MBC) were analyzed against relevant bacteria. The evaluated strains were the Gram-positives: S. aureus ATCC 25923, S. epidermidis ATCC 35984, E. faecalis ATCC 29212, and E. faecium ATCC […] (Table 1); and the Gram-negatives: K. pneumoniae ATCC 700603, E. coli ATCC 25922, A. baumannii ATCC 19606, and P. aeruginosa ATCC 27853 (Table 2).

[2] = tested on: E. coli ATCC 25922; test: as above; assay type: cell-based; design: key to Act (antibacterial activity): Bc, bactericidal; Bs, bacteriostatic; settings: for Act (antibacterial activity): MBC/MIC ratio >4 suggests bacteriostatic; for MIC: broth microdilution; for MIC / MBC: triplicate, mode; for MBC: subculture on CA-MH agar, 37 °C, 24 h
Description: as §1, §2

[3] = tested on: E. faecalis ATCC 29212; test: as above; assay type: cell-based; design: key to Act (antibacterial activity): Bc, bactericidal; Bs, bacteriostatic; settings: for Act (antibacterial activity): MBC/MIC ratio >4 suggests bacteriostatic; for MIC: broth microdilution; for MIC / MBC: triplicate, mode; for MBC: subculture on CA-MH agar, 37 °C, 24 h
Description: as §1, §2

[4] = tested on: S. epidermidis ATCC 35984; test: as above; assay type: cell-based; design: key to Act (antibacterial activity): Bc, bactericidal; Bs, bacteriostatic; settings: for Act (antibacterial activity): MBC/MIC ratio >4 suggests bacteriostatic; for MIC: broth microdilution; for MIC / MBC: triplicate, mode; for MBC: subculture on CA-MH agar, 37 °C, 24 h
Description: as §1, §2

[5] = tested on: E. faecium ATCC 700221; test: as above; assay type: cell-based, Enterococcus faecium; design: key to Act (antibacterial activity): Bc, bactericidal; Bs, bacteriostatic; settings: for Act (antibacterial activity): MBC/MIC ratio >4 suggests bacteriostatic; for MIC: broth microdilution; for MIC / MBC: triplicate, mode; for MBC: subculture on CA-MH agar, 37 °C, 24 h
Description: as §1, §2

[6] = tested on: K. pneumoniae ATCC 700603; test: as above; assay type: cell-based, Klebsiella pneumoniae; design: key to Act (antibacterial activity): Bc, bactericidal; Bs, bacteriostatic; settings: for Act (antibacterial activity): MBC/MIC ratio >4 suggests bacteriostatic; for MIC: broth microdilution; for MIC / MBC: triplicate, mode; for MBC: subculture on CA-MH agar, 37 °C, 24 h
Description: as §1, §2

[7] = tested on: A. baumannii ATCC 19606; test: as above; assay type: cell-based, Acinetobacter baumannii; design: key to Act (antibacterial activity): Bc, bactericidal; Bs, bacteriostatic; settings: for Act (antibacterial activity): MBC/MIC ratio >4 suggests bacteriostatic; for MIC: broth microdilution; for MIC / MBC: triplicate, mode; for MBC: subculture on CA-MH agar, 37 °C, 24 h
Description: as §1, §2

[8] = tested on: P. aeruginosa ATCC 27853; test: as above; assay type: cell-based, Pseudomonas aeruginosa; design: key to Act (antibacterial activity): Bc, bactericidal; Bs, bacteriostatic; settings: for Act (antibacterial activity): MBC/MIC ratio >4 suggests bacteriostatic; for MIC: broth microdilution; for MIC / MBC: triplicate, mode; for MBC: subculture on CA-MH agar, 37 °C, 24 h
Description: as §1, §2

[9] = Carboxyfluorescein leakage, vesicle permeabilization; settings: 95% POPC / 5% POPG vesicles
Description: The permeabilization of lipid vesicles containing carboxyfluorescein was carried out using a spectrofluorometer model Fluorolog-3 FL3-122 from Horiba Jobin Yvon (Newark, NJ, USA) (dimers and tetramers) or in a spectrofluorometer model RF-1501 Shimadzu (Kyoto, Japan) (monomer). For RF-1501, the quantification of the fluorescence intensity was performed every 20 s. Two vesicle compositions were used: (1) 80% 1-palmitoyl-2-oleoyl-sn-glycero-3-phosphoethanolamine (POPE) and 20% 1-palmitoyl-2-oleoyl-sn-glycero- 3-phospho-(10-rac-glycerol) (POPG); and (2) 95% 1-palmitoyl-2-oleoyl-sn-glycero-3-phosphocholine (POPC) and 5% POPG. The percentage of leakage was obtained through the following equation:% release = (Fmeasured − Finitial)/(Ffinal − Finitial) × 100, where Ffinal is the average fluorescence value obtained after the addition of Triton, Finitial is the average of the initial values of the run before the addition of the peptide, and Fmeasured are the fluorescence values obtained at each point of the experiment.
Here, we evaluated two systems of membrane mimetics, including vesicles with a composition of 80% POPE and 20% POPG, and another with 95% POPC and 5% POPG. The first is widely used as a model of bacterial membranes, specifically of E. coli membrane. Membranes constituting POPC and POPG were used to mimic mammalian membranes due to the presence of choline-containing lipids in animal membranes.

[10] = target: T1, SARS-CoV-2 PL^pro (Severe acute respiratory syndrome coronavirus 2, UniProt P0DTD1); settings: PL^pro from SARS-CoV-2, ref 19 (Freire et al., 2021), cited from earlier work; for Inhibition (%) at 10 µM: peptide 10 µM
T1 construct: made in house
Description: Table 3 PL^pro activity by peptide analogs of p-BThTX-I at the concentration of 10 μM and IC50 values. Representative concentration–response inhibition curves against PL^pro from SARS-CoV-2 are presented in the Supplementary Material (Figure S7). | column: Inhibition (%) at 10 µM; IC50 μM

[11] = tested on: SARS-CoV-2; settings: Vero cells; cited from earlier work
Description: In December 2019, the first case of viral infection with a new coronavirus was reported in China, which was later named severe acute respiratory syndrome coronavirus 2 (SARS-CoV-2), and the disease caused by this was named coronavirus-2019 or COVID-19 by the WHO. This disease has taken on great proportions, causing a pandemic scenario and great global concern. Even with the improvements in disease control, there is still a need for new, specific antiviral therapeutic options. As antimicrobial peptides also have antiviral action, the L-dimer, D-dimer and L-tetramer, in addition to ...

[12] = target: T1, SARS-CoV-2 PL^pro; test: PL^pro enzymatic inhibition assay; assay type: biochemical; settings: PL^pro from SARS-CoV-2; for inhibition at 10 µM: peptide 10 µM; for IC50: two independent experiments
[13] = tested on: erythrocytes; test: Hemolysis assay; assay type: cell-based; settings: at 512 µg/mL, 1 h, 37 °C, Triton X-100 1% positive control, duplicate
Description: Peptide hemolytic activity was determined as previously described^15. Peptides were incubated with erythrocytes in the range from 512 μg/mL to 0.06 μg/mL for 1 h at 37 °C. Triton X-100 1% was used as a positive control for hemolysis. Assays were performed in duplicate. The Research Ethics Committee approved this project under the number 90291518.4.0000.5426.

Compound	MIC [1]	MBC [1] [µg/mL]	Act (antibacterial activity) [2]	MIC [2]	MBC [2] [µg/mL]	Act (antibacterial activity) [3]	MIC [3]	MBC [3] [µg/mL]	MIC [4]	MBC [4] [µg/mL]	MIC [5]	MBC [5] [µg/mL]	MIC [6]	MBC [6] [µg/mL]	MIC [7]	MBC [7] [µg/mL]	MIC [8]	MBC [8] [µg/mL]	inhibition at 10 µM [12] [%]	IC50 [12] [nM]	other results
CC(C)C[C@@H](NC(=O)[C@@H](Cc1c[nH]cn1)NC(=O)[C@@H](Cc1ccc(O)cc1)NC(=O)[C@@H](CCCNC(=N)N)NC(=O)[C@@H](Cc1ccc(O)cc1)NC(=O)[C@@H](CCCCN)NC(=O)[C@H](N)CCCCN)C(=O)N[C@H](CCCCN)C(=O)N1CCC[C@@H]1C(=O)N[C@H](Cc1ccccc1)C(=O)NCCCC[C@H](NC(=O)[C@@H](Cc1ccccc1)NC(=O)[C@H]1CCCN1C(=O)[C@@H](CCCCN)NC(=O)[C@@H](CC(C)C)NC(=O)[C@@H](Cc1c[nH]cn1)NC(=O)[C@@H](Cc1ccc(O)cc1)NC(=O)[C@@H](CCCNC(=N)N)NC(=O)[C@@H](Cc1ccc(O)cc1)NC(=O)[C@@H](CCCCN)NC(=O)[C@H](N)CCCCN)C(N)=O [D-dimer] (I: H-[dK][dK][dY][dR][dY][dH][dL][dK][dP][dF]K-NH2 / II: H-[dK][dK][dY][dR][dY][dH][dL][dK][dP][dF]; amide I:11-II:C; N-terminus assumed)	256 μg/mL and 89 µM	>512	Bc	32 μg/mL and 11 µM	32 (≈ 11.2 µM)	Bc	178 µM and 512 μg/mL	512 (≈ 178 µM)	16 µg/mL	16 (≈ 5.58 µM)	64 μg/mL and 22 µM	>256	64 μg/mL and 22 µM	128 (≈ 44.6 µM)	5 µM (≈ 14.3 µg/mL)	64 (≈ 22.3 µM)	256 μg/mL and 89 µM	512 (≈ 178 µM)	–	–	Act (antibacterial activity) [4]: Bc; Act (antibacterial activity) [5]: Bs; Act (antibacterial activity) [6]: Bc; Act (antibacterial activity) [7]: Bc; Act (antibacterial activity) [8]: Bc; fluorescein leakage ([9]; concentration not stated in the sentence (10 and 50 µM tested)): 20%; CF leakage ([9]; peptide 50 µM): 20%; Inhibition (%) at 10 µM [10]: 96.35 ± 0.91%; percentage inhibition of SARS-CoV-2 infection [11]: 69%
CC(C)C[C@@H](NC(=O)[C@@H](Cc1c[nH]cn1)NC(=O)[C@@H](Cc1ccc(O)cc1)NC(=O)[C@@H](CCCNC(=N)N)NC(=O)[C@@H](Cc1ccc(O)cc1)NC(=O)[C@@H](CCCCN)NC(=O)[C@H](N)CCCCN)C(=O)N[C@H](CCCCN)C(=O)N1CCC[C@@H]1C(=O)N[C@H](Cc1ccccc1)C(N)=O [D-monomer] (H-[dK][dK][dY][dR][dY][dH][dL][dK][dP][dF]-NH2)	>371 µM	>512	–	185 µM (≈ 255 µg/mL)	256 (≈ 186 µM)	–	>371 µM	>512	>371 µM	>512	>371 µM	>512	371 µM (≈ 511 µg/mL)	512 (≈ 371 µM)	>371 µM	>512	>371 µM	>512	85 ± 3	3000 ± 1000	–
CC(C)C[C@H](NC(=O)[C@H](Cc1c[nH]cn1)NC(=O)[C@H](Cc1ccc(O)cc1)NC(=O)[C@H](CCCNC(=N)N)NC(=O)[C@H](Cc1ccc(O)cc1)NC(=O)[C@H](CCCCN)NC(=O)[C@@H](N)CCCCN)C(=O)N[C@@H](CCCCN)C(=O)N1CCC[C@H]1C(=O)N[C@@H](Cc1ccccc1)C(N)=O [L-monomer] (H-KKYRYHLKPF-NH2)	>371 µM	>512	–	>371 µM	>512	–	>371 µM	>512	>371 µM	>512	>371 µM	>512	>371 µM	>512	>371 µM	>512	–	>512	93.3	2100 ± 100	–
I: KKYRYHLKPFKK-NH2 / II: KKYRYHLKPFK / III: KKYRYHLKPF / IV: KKYRYHLKPF (amide I:11-IV:C, I:12-II:C, II:11-III:C) [L-tetramer]	64 μg/mL and 10 µM	256	Bs	32 μg/mL and 5 µM	>128	Bc	10 µM and 64 μg/mL	128	16 µg/mL	32	–	32	32 μg/mL and 5 µM	>128	5 µM and 32 μg/mL	64	32 μg/mL and 5 µM	64	–	–	Act (antibacterial activity) ([1]; MBC/MIC ratio >4 suggests bacteriostatic): Bc; Act (antibacterial activity) [4]: Bc; Act (antibacterial activity) [5]: Bc; Act (antibacterial activity) [6]: Bs; Act (antibacterial activity) [7]: Bc; Act (antibacterial activity) [8]: Bc; Inhibition (%) at 10 µM [10]: 98.40 ± 0.00%; IC50 [10]: 1400 ± 20 nM; percentage inhibition of SARS-CoV-2 infection [11]: 54%
I: [dK][dK][dY][dR][dY][dH][dL][dK][dP][dF]KK-NH2 / II: [dK][dK][dY][dR][dY][dH][dL][dK][dP][dF]K / III: [dK][dK][dY][dR][dY][dH][dL][dK][dP][dF] / IV: [dK][dK][dY][dR][dY][dH][dL][dK][dP][dF] (amide I:11-IV:C, I:12-II:C, II:11-III:C) [D-tetramer]	10 µM	64	–	5 µM	>128	–	5 µM	32	2 µM	16	2 µM	16	5 µM	32	5 µM	32	5 µM	64	94 ± 3	2700 ± 500	hemolysis [13]: 28%
